Key:
[1] = cytotoxicity assay (percent viability of HEp-2 cells, Cell Titer-Glo); conditions: human, HEp-2 cells
[2] = tested on: respiratory syncytial virus (RSV) strain Long; assay: microbe, parasite or virus in culture; conditions: human respiratory syncytial virus, HEp-2, 144 h
Procedure: The assay measures RSV virus-induced CPE in HEp-2 cells using cell viability as the end point.
Two vials of RSV (strain Long) containing 1×10^7 pfu/mL was thawed using an Eppendorf thermomixer for 13 min at 15° C., with shaking at 350 rpm. […] The cells were incubated for 18-20 h at 37° C., 5% CO2, 90% relative humidity. The medium was aspirated and the cells washed with 10 mL PBS without Mg^2+ or Ca^2+. Cells were harvested from flasks using 0.25% trypsin-EDTA. The cells were resuspended in a freezing medium of 95% fetal calf serum and 5% DMSO to a final cell density of 2×10^6 cells/mL. One mL aliquots of this virus infected cell suspension were dispensed to cryovials and cells were rate frozen to −80° C. Frozen infected cells were then transferred to −150° C. for long term storage.
Test compounds were evaluated by measuring their antiviral activity, cell toxicity, and selectivity. Test compounds were serially diluted in a plate to plate matrix or “stacked plate” matrix. All 320 compounds in a source plate were diluted together resulting in a 10 point dose response dilution series. It was visualized as a serial dilution series proceeding vertically through a stack of plates with the high dose plate on top and the low dose plate on the bottom.
Cells were harvested and resuspended to 80,000 cells per ml in Complete DMEM/F12.
Cells were thawed in a room temperature water bath with gentle agitation. The tube was inverted 5-10. Cells were diluted to 80,000 cells per ml by adding the contents of the vial to 24 ml of cold (4° C.) media.
Twenty five ul of uninfected HEp-2 cells were plated in the cell control wells. Frozen infected cells were combined with uninfected HEp-2 cells at a 1:100 ratio. Twenty five ul of the cell mixture was added to the virus control and compound wells. All cell plating was conducted using a Matrix WellMate and cells were maintained at room temperature with stirring during the plating process. The assay plates were incubated for six days at 37° C., 5% CO2 and 90% relative humidity.
Following the six day incubation period, the assay plates were equilibrated to room temperature for 30 min and an equal volume (30 μL) of Cell Titer-Glo reagent (Promega Inc.) was added to each well using a WellMate (Matrix, Hudson, N.H.) and plates were incubated for an additional 10 min at room temperature. At the end of the incubation, luminescence was measured using a Perkin Elmer Envision™ multi-label reader (PerkinElmer, Wellesley, Mass.) with an integration time of 0.1 s.
Data was analyzed using ActivityBase software (IDBS, Inc, Guilford, UK). thirty two control wells containing cells only and twenty four wells containing cells and virus were included on each assay plate and used to calculate Z′ value for each plate and to normalize the data on a per plate basis. […] Eight ribavirin positive control wells were included on each plate for quality control purposes, but were not used in Z′ calculations. […] In the toxicity assay, results are described as percent viability and the calculation is the same.
An EC50 (for CPE inhibition) and IC50 (for cell viability) were calculated for each substance using the 4 parameter Levenburg-Marquardt algorithm with parameter A locked at 0 and parameter B locked at 100. Standard deviation, normalized chi2 and hill slope were used to evaluate the curves. Values were not extrapolated beyond the tested range of concentrations.

Structure (SMILES)	EC50 [2]	CC50 at 6 days [1]
CCOc1ccc(-c2nnc(Nc3ccc(OC)c(C(=O)NC)c3)c3ccccc23)cc1 [AB00317165]	19.5 µg/mL	> 25 µg/mL
CCOC(=O)C1=C(C)Nc2ncnn2C1c1ccc(OC)c(OCC)c1 (centres unmarked) [AB00335740]	21.1 µg/mL	> 25 µg/mL
Cc1cc(C)n(-c2ccc(C(=O)Nc3cc(Cl)ccc3C)cc2)n1 [AB00712667]	24 µM	> 50 µM
COC(=O)c1sc2cc(NC(=S)NCCCN3CCCC3=O)ccc2c1Cl [AB00351451]	17.5 µg/mL	> 25 µg/mL
Cc1ccc(C)n1-c1ccc(C(=O)O)cc1 [AB00275199]	13 µg/mL	> 25 µg/mL
NC(=O)c1c(NC(=O)Nc2cccc(Cl)c2)sc2c1CCCC2 [AB00313952]	2.72 µg/mL	> 25 µg/mL
COC(=O)Cc1ccc2c3ccccc3n(C)c2c1 [AB00299031]	21.7 µg/mL	> 25 µg/mL
N#C/C(=C\c1ccc(-c2ccc(Cl)c(Cl)c2)o1)C(N)=S [AB00344427]	17.9 µg/mL	> 25 µg/mL
CC(Oc1ccc(-c2ccccc2)cc1)C(=O)Nc1nnc(C2CCCO2)s1 (centres unmarked) [AB00365647]	19.3 µg/mL	> 25 µg/mL
OCc1cccc2c(Br)cccc12 [AB00375379]	39.2 µM	> 50 µM
CC(C)CCCC(C)C1CC[C@@H]2[C@@H]3CC[C@@H]4CC(CCC=C(c5cc(Cl)c(O)c(C(=O)O)c5)c5cc(Cl)c(O)c(C(=O)O)c5)CC[C@]4(C)[C@@H]3CC[C@]12C (some centres unmarked) [AB00443953]	21.3 µM	> 50 µM
CCOc1ccc(NC(=O)CSC2=C(C#N)C(c3ccncc3)C(C(=O)Nc3ccccc3)=C(C)N2)cc1 (centres unmarked) [AB00292155]	15.7 µg/mL	> 25 µg/mL
COC(=O)c1ccc(NC(=O)c2ccc(C)c(Br)c2)cc1 [AB00302921]	20.3 µg/mL	> 25 µg/mL
Cc1ccc2c(Cn3cnc4scc(-c5ccc(F)cc5)c4c3=O)cc(=O)oc2c1 [AB00796970]	10.6 µM	> 50 µM
O=c1c2c3c(sc2ncn1CCO)CCCC3 [AB00372624]	23.6 µg/mL	> 25 µg/mL
COCCNC(=O)Nc1ccc2nc(-c3cccs3)c(-c3cccs3)nc2c1 [AB00302454]	15.3 µg/mL	> 25 µg/mL

Structure (SMILES)	EC50 [2]	CC50 at 6 days [1]
Cc1cc(SCCC#N)nc2ccccc12 [AB00371866]	13.7 µg/mL	> 25 µg/mL
O=S(=O)(Nc1ccc(-c2cn3cccnc3n2)cc1)c1cc(Cl)ccc1Cl [AB00370838]	22.5 µg/mL	> 25 µg/mL
C/C(N)=C(/C#N)C(=O)CSc1nnc2c(Cl)cc(C(F)(F)F)cn12 [AB00724801]	16.2 µM	> 50 µM
Nc1c(N=Nc2ccc(-c3ccc(N=Nc4cc(S(=O)(=O)O)c5ccccc5c4N)cc3)cc2)cc(S(=O)(=O)O)c2ccccc12 [AB00443629]	35.6 µM	> 50 µM
CCOc1ccccc1-c1cc(C(=O)O)c2cc(Br)ccc2n1 [AB00309817]	14.3 µg/mL	> 25 µg/mL
O=C(Nc1ccc2c(c1)ncn2C1CCCCC1)c1cccs1 [AB00369934]	13.6 µg/mL	> 25 µg/mL
O=C(O)c1ccc(NC(=S)NC(=O)c2ccc(-c3ccc(Br)cc3)o2)cc1 [AB00301183]	22.6 µg/mL	> 25 µg/mL
CCOC(=O)c1ccc(NC(=O)NC(C)C2CCCO2)cc1 (centres unmarked) [AB00349705]	19.2 µg/mL	> 25 µg/mL
O=C(c1ccc(O)cc1O)c1ccc(O)cc1O [AB00275918]	20.5 µg/mL	> 25 µg/mL
COc1ccc(-c2nc3ccccc3s2)cc1O [AB00339206]	21.9 µg/mL	> 25 µg/mL
COC(=O)Nc1ccc2ccccc2c1 [AB00314279]	23.5 µg/mL	> 25 µg/mL
CCC(Oc1ccc(-c2ccc(C)cc2)cc1)C(=O)OC (centres unmarked) [AB00298660]	13.5 µg/mL	> 25 µg/mL
O=S(=O)(O)c1cc(/N=N/c2cc(S(=O)(=O)O)c3cccnc3c2O)ccc1/C=C/c1ccc(/N=N/c2cc(S(=O)(=O)O)c3cccnc3c2O)cc1S(=O)(=O)O [AB00444372]	10.9 µM	> 50 µM
COc1cc([N+](=O)[O-])ccc1NC(=O)C1CC(Cl)=CCC1C(=O)O (centres unmarked) [AB00296680]	12.9 µg/mL	> 25 µg/mL
Cc1ccnc(NCc2cc(Br)ccc2O)c1 [AB00318952]	22.2 µg/mL	> 25 µg/mL

Second part, led by results:

EC50 [2]	Structure (SMILES)	CC50 at 6 days [1]
14.3 µg/mL	O=C1c2ccccc2C(=O)N1CCc1nc2ccccc2c(=O)n1-c1cc(Cl)ccc1Cl [AB00307079]	> 25 µg/mL
12.4 µg/mL	O=C(Nc1cccc(Br)c1)C1CCN(C(=O)c2ccc([N+](=O)[O-])cc2)CC1 [AB00317214]	> 25 µg/mL
20.7 µg/mL	NC(=O)c1ccccc1NC(=O)CSc1nc2ccccc2o1 [AB00132114]	> 25 µg/mL
24.2 µg/mL	CCCCSc1nc(=O)c(C(c2ccccc2)c2ccccc2)c(O)[nH]1 [AB00291408]	> 25 µg/mL
18.8 µg/mL	Cc1ccc2nc(-c3ccccc3)c(CN3CCCC3)c(O)c2c1 [AB00293683]	> 25 µg/mL
29.8 µM	Cc1ccc(O)c(C(=O)c2cc(C(=O)Nc3ccccc3C)c(=O)n(-c3ccccc3C)c2)c1 [AB00719359]	> 50 µM
11.4 µg/mL	CC1CCCCN1C(=O)c1ccc(NC(=O)c2ccccc2Cl)cc1 (centres unmarked) [AB00359707]	> 25 µg/mL
10.7 µg/mL	O=S1(=O)N=C(Nc2ccc3c4c(cccc24)CC3)c2ccccc21 [AB00304418]	> 25 µg/mL
49.8 µM	CC(=O)Nc1ccc(S(=O)(=O)N(C)CC(=O)Nc2ccccc2Oc2ccccc2)cc1 [AB00798716]	> 50 µM
13.8 µg/mL	C=CCNc1cc(N2CCN(C(=O)c3ccc(C)cc3)CC2)ccc1[N+](=O)[O-] [AB00319534]	> 25 µg/mL
12 µg/mL	O=C(Nc1ccc(Nc2ccccc2)cc1)c1ccccc1F [AB00282102]	> 25 µg/mL
11.4 µg/mL	CC(=O)c1ccc2c3c(ccc(O)c13)CC2 [AB00293238]	> 25 µg/mL
15.8 µg/mL	CC1=CC(C)(C)Nc2ccc(OC(=O)C(Cc3ccccc3)N3C(=O)C4CCCCC4C3=O)cc21 (centres unmarked) [AB00299290]	> 25 µg/mL
22.5 µg/mL	O=C(Nc1ccc2oc(-c3ccccc3Br)nc2c1)c1ccco1 [AB00294890]	> 25 µg/mL
14.1 µg/mL	O=C(c1ccccc1C(=O)N1CCc2ccccc2C1)N1CCc2ccccc2C1 [AB00310729]	> 25 µg/mL
23.4 µg/mL	S=C(c1ccc(OCc2cccc3ccccc23)cc1)N1CCOCC1 [AB00362891]	> 25 µg/mL
19.2 µg/mL	Cc1ccc(S(=O)(=O)NC2CCCC(C(=O)Oc3ccc4c(c3)oc(=O)c3ccccc34)C2)cc1 (centres unmarked) [AB00297971]	> 25 µg/mL
10.8 µg/mL	Fc1cccc(COc2ccc(C(=S)N3CCOCC3)cc2)c1 [AB00293926]	> 25 µg/mL
21.1 µg/mL	COc1ccccc1C(=O)N(CCCCN1C(=O)c2ccccc2C1=O)c1ccc(Cl)cc1 [AB00301352]	> 25 µg/mL
12.2 µg/mL	O=C(N1CCCC1)N1c2ccccc2CCc2ccccc21 [AB00276381]	> 25 µg/mL
26.2 µM	CC(=O)Nc1cc(C(=O)CSc2nc3ccccc3n2C)ccc1O [AB00766545]	> 50 µM

— patent US20130085133A1, “ANTI-VIRAL TREATMENT AND ASSAY TO SCREENFOR ANTI-VIRAL AGENT” (Sourthern Research Institute Office of Commercialization …, priority 2010, published 2013)
